Data taken from the OligoGym collection.
Where “and” joins values, the source holds several entries; their conditions need not be identical. Equal values may be shown once. After the bases stand the sugars from the 5' end (letter, count) and the backbone: PS all phosphorothioate, else s phosphorothioate and o phosphodiester by linkage. Methylation of C is not given here. e = 2'-O-(2-methoxyethyl) (MOE); k = constrained ethyl (cEt); d = 2'-deoxy (DNA)

Target: SOD1
Conditions: ASO

Sequence: CAGGATACATTTCTACAGCT (sugars e5 d10 e5, linkages s1 o3 s11 o2 s2)
- target mRNA inhibition (A431, 0.062 µM): 33%
- target mRNA inhibition (A431, 0.185 µM): 29%
- target mRNA inhibition (A431, 0.556 µM): 52%
- target mRNA inhibition (A431, 0.6 µM): 50%
- target mRNA inhibition (A431, 1.667 µM): 62%
- target mRNA inhibition (A431, 5 µM): 74%
- target mRNA inhibition (A431, 15 µM): 82%
- target mRNA inhibition (SH-SY5Y, 0.062 µM): 10%
- target mRNA inhibition (SH-SY5Y, 0.185 µM): 10%
- target mRNA inhibition (SH-SY5Y, 0.556 µM): 33%
- target mRNA inhibition (SH-SY5Y, 1.667 µM): 61%
- target mRNA inhibition (SH-SY5Y, 5 µM): 81%
- target mRNA inhibition (SH-SY5Y, 15 µM): 92%

Sequence: TTTATAGGCCAGACCTCCGC (sugars e5 d10 e5, PS)
- target mRNA inhibition (HepG2, 4 µM): 68% and 69%
- target mRNA inhibition (HepG2, 12 µM): 82%

Sequence: TTGGGCGATCCCAATTA (sugars e3 k2 d7 k2 e3, PS)
- target mRNA inhibition (HepG2, 3 µM): 26%

Sequence: GGATACATTTCTACAGCT (sugars e5 d8 e5, linkages s1 o3 s9 o2 s2)
- target mRNA inhibition (A431, 0.12 µM): 0%
- target mRNA inhibition (A431, 0.6 µM): 25%
- target mRNA inhibition (A431, 3 µM): 29%
- target mRNA inhibition (A431, 15 µM): 50%
- target mRNA inhibition (HepG2, 0.222 µM): 38%
- target mRNA inhibition (HepG2, 0.667 µM): 62%
- target mRNA inhibition (HepG2, 2 µM): 82%
- target mRNA inhibition (HepG2, 6 µM): 94%

Sequence: GCCCAAGTCTCCAACATGCC (sugars e5 d10 e5, PS)
- target mRNA inhibition (HepG2, 5 µM): 61% and 53%

Sequence: CACCACAAGCCAAACGA (sugars e2 k2 d9 k2 e2, PS)
- target mRNA inhibition (HepG2, 4 µM): 46%

Sequence: CTCTCTTCATCCTTTGG (sugars e3 k2 d7 k2 e3, PS)
- target mRNA inhibition (HepG2, 3 µM): 2%

Sequence: TTCAGTCAGTCCTTTAATGC (sugars e5 d10 e5, PS)
- target mRNA inhibition (HepG2, 5 µM): 24% and 21%

Sequence: TGGGCCGTCGCCCTTCAGCA (sugars e5 d10 e5, PS)
- target mRNA inhibition (HepG2, 4 µM): 12%

Sequence: ATAGCCTCATAATAAGT (sugars e2 k2 d9 k2 e2, PS)
- target mRNA inhibition (HepG2, 5 µM): 27%

Sequence: CCGTCGCCCTTCAGCACGCA (sugars e5 d10 e5, PS)
- target mRNA inhibition (A431, 0.12 µM): 0% and 5%
- target mRNA inhibition (A431, 0.6 µM): 7% and 0%
- target mRNA inhibition (A431, 3 µM): 17% and 0% and 7%
- target mRNA inhibition (HepG2, 0.1875 µM): 0% and 3%
- target mRNA inhibition (HepG2, 0.222 µM): 0% and 14%

Sequence: CAATTACACCACAAGCC (sugars e3 k2 d7 k2 e3, PS)
- target mRNA inhibition (HepG2, 3 µM): 33%

Sequence: TATTGGGCGATCCCAAT (sugars e3 k2 d7 k2 e3, PS)
- target mRNA inhibition (HepG2, 3 µM): 3%

Sequence: TGTTTATTGGGCGATCC (sugars e2 k2 d9 k2 e2, PS)
- target mRNA inhibition (HepG2, 4 µM): 47%

Sequence: TAATGTTTATCAGGAT (sugars ekddddddddekekee, linkages s1 o1 s8 o3 s2)
- target mRNA inhibition (A431, 0.12 µM): 1%
- target mRNA inhibition (A431, 0.6 µM): 9%
- target mRNA inhibition (A431, 3 µM): 22%
- target mRNA inhibition (A431, 15 µM): 46%

Sequence: GGATACATTTCTACAGC (sugars e4 k1 d8 k1 e3, linkages s1 o3 s9 o1 s2)
- target mRNA inhibition (A431, 0.062 µM): 8%
- target mRNA inhibition (A431, 0.185 µM): 7%
- target mRNA inhibition (A431, 0.556 µM): 30%
- target mRNA inhibition (A431, 1.667 µM): 33%
- target mRNA inhibition (A431, 5 µM): 66%
- target mRNA inhibition (A431, 15 µM): 59%
- target mRNA inhibition (SH-SY5Y, 0.062 µM): 9%
- target mRNA inhibition (SH-SY5Y, 0.185 µM): 0%
- target mRNA inhibition (SH-SY5Y, 0.556 µM): 12%
- target mRNA inhibition (SH-SY5Y, 1.667 µM): 33%
- target mRNA inhibition (SH-SY5Y, 5 µM): 65%
- target mRNA inhibition (SH-SY5Y, 15 µM): 76%

Sequence: CGTCGCCCTTCAGCACG (sugars e2 k2 d8 k2 e3, PS)
- target mRNA inhibition (HepG2, 4 µM): 52%

Sequence: TACCCATCTGTGATTTA (sugars e2 k2 d9 k2 e2, PS)
- target mRNA inhibition (HepG2, 5 µM): 45%

Sequence: TTTAATGCTTCCCCACACCT (sugars e5 d10 e5, PS)
- target mRNA inhibition (HepG2, 4 µM): 15%

Sequence: CATCTGTGATTTAAGTC (sugars e2 k2 d9 k2 e2, PS)
- target mRNA inhibition (HepG2, 5 µM): 48%

Sequence: ATACAGGTCATTGAAAC (sugars e3 k2 d7 k2 e3, PS)
- target mRNA inhibition (HepG2, 3 µM): 14%

Sequence: GGCGATCCCAATTACAC (sugars e2 k2 d9 k2 e2, PS)
- target mRNA inhibition (HepG2, 4 µM): 66%

Sequence: AGCAGTCACATTGCCCA (sugars e3 k2 d7 k2 e3, PS)
- target mRNA inhibition (HepG2, 3 µM): 18%

Sequence: TCCCCACACCTTCACT (sugars kekeddddddddekek, linkages s1 o3 s8 o1 s2)
- target mRNA inhibition (A431, 0.12 µM): 3%
- target mRNA inhibition (A431, 0.6 µM): 44%
- target mRNA inhibition (A431, 3 µM): 2%
- target mRNA inhibition (A431, 15 µM): 8%
- target mRNA inhibition (HepG2, 0.222 µM): 19%
- target mRNA inhibition (HepG2, 0.667 µM): 9%
- target mRNA inhibition (HepG2, 2 µM): 31%
- target mRNA inhibition (HepG2, 6 µM): 61%

Sequence: TTTCTACAGCTAGCAGG (sugars e3 k2 d7 k2 e3, PS)
- target mRNA inhibition (HepG2, 3 µM): 38%

Sequence: ACTTTATAGGCCAGACCTCC (sugars e5 d10 e5, PS)
- target mRNA inhibition (HepG2, 4 µM): 64%

Sequence: GGGCCTCAGACTACATC (sugars e2 k2 d9 k2 e2, PS)
- target mRNA inhibition (HepG2, 4 µM): 58%
